According to US9113629B2, “4-amino-6-(4-substituted-phenyl)-picolinates and 6-amino-2-(4-substituted-phenyl)-pyrimidine-4-carboxylates and their use as herbicides” (DOW AGROSCIENCES LLC, priority 2013, dated 2015):
Like-named read-outs stand apart in the source and are kept apart here.

Tests used:
[1] = test system: Key Broadleaf Weed and Crop Species; assay: Post-emergent Test II herbicidal activity (Table 5); assay type: in vivo; details: post-emergence, 336 h, post-emergent, 14 days after application; for pest or weed control at 70 g/ha: 70 g ai/ha; for pest or weed control at 140 g/ha: 140 g ai/ha
Outline: (§1)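 Greenhouse post-emergent assay: seedlings (first/second true leaf) in Metro-Mix 360 were sprayed at 187 L/ha at a top rate plus twofold dilutions down to 1/16×; solvent-blank controls were included. Percent visual injury was read at 14 d.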

[2] = test system: Key Grass and Sedge Weeds as well as Grass Crops; assay: Post-emergent Test II herbicidal activity (Table 6); assay type: in vivo; details: post-emergence, 336 h; for pest or weed control at 70 g/ha: application rate 70 g ai/ha; for pest or weed control at 140 g/ha: application rate 140 g ai/ha
Outline: as §1

[3] = ABUTH: velvetleaf (Abutilon theophrasti), read-out: Visual Growth Reduction (%) 14 Days After Application ABUTH
[4] = AMARE: redroot pigweed (Amaranthus retroflexus), read-out: Visual Growth Reduction (%) 14 Days After Application AMARE
[5] = BRSNN: oilseed-rape, canola (Brassica napus), read-out: Visual Growth Reduction (%) 14 Days After Application BRSNN
[6] = CHEAL: lambsquarters (Chenopodium album), read-out: Visual Growth Reduction (%) 14 Days After Application CHEAL
[7] = EPHHL: wild poinsettia (Euphorbia heterophylla), read-out: Visual Growth Reduction (%) 14 Days After Application EPHHL
[8] = HELAN: sunflower (Helianthus annuus), read-out: Visual Growth Reduction (%) 14 Days After Application HELAN
[9] = VIOTR: wild pansy (Viola tricolor), read-out: Visual Growth Reduction (%) 14 Days After Application VIOTR
[10] = Triticum aestivum, TRZSS (wheat), read-out: Visual Growth Reduction (%) 14 Days After Application, TRZSS
[11] = CYPES: yellow nutsedge (Cyperus esculentus), read-out: Visual Growth Reduction (%) 14 Days After Application, CYPES
[12] = DIGSA: crabgrass (Digitaria sanguinalis), read-out: Visual Growth Reduction (%) 14 Days After Application, DIGSA
[13] = ECHCG: barnyardgrass (Echinochloa crus-galli), read-out: Visual Growth Reduction (%) 14 Days After Application, ECHCG
[14] = ORYSA: rice (Oryza sativa), read-out: Visual Growth Reduction (%) 14 Days After Application, ORYSA
[15] = SETFA: giant foxtail (Setaria faberi), read-out: Visual Growth Reduction (%) 14 Days After Application, SETFA
[16] = SORVU: grain sorghum (Sorghum vulgare), read-out: Visual Growth Reduction (%) 14 Days After Application, SORVU
[17] = ZEAMX: maize, corn (Zea mays), read-out: Visual Growth Reduction (%) 14 Days After Application, ZEAMX

| Structure (SMILES) | pest or weed control at 70 g/ha [1, 3] [%] | pest or weed control at 140 g/ha [1, 3] [%] | pest or weed control at 70 g/ha [1, 4] [%] | pest or weed control at 140 g/ha [1, 4] [%] | pest or weed control at 70 g/ha [1, 5] [%] | pest or weed control at 140 g/ha [1, 5] [%] | pest or weed control at 70 g/ha [1, 6] [%] | pest or weed control at 140 g/ha [1, 6] [%] | pest or weed control at 70 g/ha [1, 7] [%] | pest or weed control at 140 g/ha [1, 7] [%] | pest or weed control at 70 g/ha [1, 8] [%] | pest or weed control at 140 g/ha [1, 8] [%] | pest or weed control at 70 g/ha [1, 9] [%] | pest or weed control at 140 g/ha [1, 9] [%] | pest or weed control at 70 g/ha [2, 10] [%] | pest or weed control at 140 g/ha [2, 10] [%] | pest or weed control at 70 g/ha [2, 11] [%] | pest or weed control at 140 g/ha [2, 11] [%] | pest or weed control at 70 g/ha [2, 12] [%] | pest or weed control at 140 g/ha [2, 12] [%] | also measured |
| --- | --- | --- | --- | --- | --- | --- | --- | --- | --- | --- | --- | --- | --- | --- | --- | --- | --- | --- | --- | --- | --- |
| COc1c(N)nc(-c2cc(F)c(Br)cc2F)nc1C(=O)O [Compound 11] | 95 to 100 | 95 to 100 | 95 to 100 | 95 to 100 | 95 to 100 | 95 to 100 | 95 to 100 | 95 to 100 | 95 to 100 | 95 to 100 | 95 to 100 | 95 to 100 | 0 to 29 | 45 to 59 | 45 to 59 | 60 to 74 | 45 to 59 | 45 to 59 | 60 to 74 | 60 to 74 | pest or weed control at 70 g/ha [2, 13]: 85 to 94%; pest or weed control at 140 g/ha [2, 13]: 85 to 94%; pest or weed control at 70 g/ha [2, 14]: 0 to 29%; pest or weed control at 140 g/ha [2, 14]: 0 to 29%; pest or weed control at 70 g/ha [2, 15]: 60 to 74%; pest or weed control at 140 g/ha [2, 15]: 60 to 74%; pest or weed control at 70 g/ha [2, 16]: 60 to 74%; pest or weed control at 140 g/ha [2, 16]: 75 to 84%; pest or weed control at 70 g/ha [2, 17]: 60 to 74%; pest or weed control at 140 g/ha [2, 17]: 60 to 74% |
| C#Cc1ccc(-c2nc(C(=O)OC)c(C=C)c(N)c2F)cc1 [Compound 60, methyl 4-amino-6-(4-ethynylphenyl)-5-fluoro-3-vinylpicolinate] | 0 to 29 | 0 to 29 | 0 to 29 | 0 to 29 | 0 to 29 | 0 to 29 | 0 to 29 | 0 to 29 | 0 to 29 | 0 to 29 | 45 to 59 | 75 to 84 | 0 to 29 | 0 to 29 | 0 to 29 | 0 to 29 | 0 to 29 | 0 to 29 | 0 to 29 | 0 to 29 | pest or weed control at 70 g/ha [2, 13]: 0 to 29%; pest or weed control at 140 g/ha [2, 13]: 0 to 29%; pest or weed control at 70 g/ha [2, 14]: 0 to 29%; pest or weed control at 140 g/ha [2, 14]: 0 to 29%; pest or weed control at 70 g/ha [2, 15]: 0 to 29%; pest or weed control at 140 g/ha [2, 15]: 0 to 29%; pest or weed control at 70 g/ha [2, 16]: 0 to 29%; pest or weed control at 140 g/ha [2, 16]: 0 to 29%; pest or weed control at 70 g/ha [2, 17]: 0 to 29%; pest or weed control at 140 g/ha [2, 17]: 0 to 29% |
